The record followed here is PMC6104039 (Nature Communications, 2018).

One experiment deals with T1, murine CerS1 (Mus musculus, UniProt P27545).
T1 construct: expressed in transfected cells; host or cells: COS cells (lentiviral infection)
The experiment is described as follows: Ceramide synthase assay, NBD-dihydrosphingosine, C18:0-CoA; COS cells expressing murine CerS1. Format: biochemical. The conditions noted are these: inhibitor range 10 nM–100 μM; read-out: IC50 mCerS1. The protocol:
Ceramide synthase assays were carried out using an HPLC-based assay with a fluorescent NBD-dihydrosphingosine substrate. All cell lines used for these assays were originally sourced from ATCC. […] Human CerS expression plasmids (pCMV6 plasmids from Origene) were transfected using FuGene-6 transfection reagent, and cells were harvested 24 h after transfection in 20 mM Hepes pH 7.4, 10 mM KCl, 1 mM dithiothreitol, 3 mM β-glycerophosphate, and EDTA-free complete protease inhibitor cocktail (Roche). Cells were sonicated in a Diagenode Bioruptor sonicating bath for 5 min, after which cell extracts were cleared by centrifugation at 800 × g for 10 min. Protein concentration in the supernatant was assayed using the bicinchoninic acid (BCA) assay, and the supernatant stored at −80 °C. COS cells were infected with lentiviral constructs expressing murine CerS1, 2, or 5, then homogenised as described above.
(§1) The reaction buffer consisted of 20 mM Hepes pH 7.4, 25 mM KCl, 2 mM MgCl2, 0.5 mM dithiothreitol, 0.1% fatty acid free BSA, 10 μM NBD-dihydrosphingosine and 50 μM fatty acid free BSA. […] The reaction mixture was transferred to a glass HPLC vial with 300 μL fused glass insert (Thermo Fisher Scientific) and NBD-dihydroceramide reaction products were analysed on a Thermo Scientific Surveyor HPLC connected to a Shimadzu RF-10AXL fluorescent detector (set to gain of 3). […]

A further experiment has as its system cortical neuron cultures. Nature of the experiment: Live-cell ceramide synthase assay: deuterated ceramide from D7-dihydrosphingosine. The conditions noted are these: two hour pre-treatment.
Another experiment concerns the target murine CerS2 (Mus musculus, UniProt Q924Z4). The experiment is described as follows: Ceramide synthase assay, NBD-dihydrosphingosine, C24:1-CoA; COS cells expressing murine CerS2. It counts as biochemical. To be noted: inhibitor range 10 nM–100 μM; read-out: IC50 mCerS2. How it is done:
Ceramide synthase assays were carried out using an HPLC-based assay with a fluorescent NBD-dihydrosphingosine substrate. All cell lines used for these assays were originally sourced from ATCC. […] Cells were sonicated in a Diagenode Bioruptor sonicating bath for 5 min, after which cell extracts were cleared by centrifugation at 800 × g for 10 min. Protein concentration in the supernatant was assayed using the bicinchoninic acid (BCA) assay, and the supernatant stored at −80 °C. COS cells were infected with lentiviral constructs expressing murine CerS1, 2, or 5, then homogenised as described above.
as §1, with “BSA. C18:0-CoA was used as the fatty acyl substrate for CerS1 and CerS4; C24:1-CoA for CerS2; and C16:0-CoA for CerS5 and CerS6. All reactions were run in triplicate.” for “BSA.”

A further experiment concerns C57BL6/J mice. Nature of the experiment: Oral glucose tolerance test with labelled glucose and fasting insulin. It counts as in vivo. The conditions noted are these: 5 mg/kg, chow or HFD. The protocol: Mice were fasted for 6 h, then received 50 mg stable isotope-labeled glucose (6,6-^2H glucose, Sigma Aldrich) by oral gavage. Blood glucose was measured with a glucose meter (Accu-Check, Roche, NSW, Australia) prior to and at 15, 30, 45, 60 and 90 min following gavage. Additional blood (~10 μL) was collected from the tail tip prior to and at 15 and 60 min following glucose gavage. These samples were used to perform mass isotopologue analysis of plasma glucose via gas chromatography–mass spectrometry (GC–MS)[70]. Specifically, plasma glucose was separated into the labelled glucose load and the endogenous (liver/kidney-derived) unlabelled glucose to permit differentiation of glucose disposal from endogenous glucose production (Supplementary Figure 10). Fasting blood insulin was measured using an Ultrasensitive Mouse Insulin ELISA Kit (Crystal Chem, Illinois, USA). […]
endogenous glucose synthesis. Plasma concentration of (a) labelled glucose resulting from an oral glucose load, and (b) endogenous glucose, during the oral glucose tolerance test. Mice

T1 sequence (P27545 whole entry): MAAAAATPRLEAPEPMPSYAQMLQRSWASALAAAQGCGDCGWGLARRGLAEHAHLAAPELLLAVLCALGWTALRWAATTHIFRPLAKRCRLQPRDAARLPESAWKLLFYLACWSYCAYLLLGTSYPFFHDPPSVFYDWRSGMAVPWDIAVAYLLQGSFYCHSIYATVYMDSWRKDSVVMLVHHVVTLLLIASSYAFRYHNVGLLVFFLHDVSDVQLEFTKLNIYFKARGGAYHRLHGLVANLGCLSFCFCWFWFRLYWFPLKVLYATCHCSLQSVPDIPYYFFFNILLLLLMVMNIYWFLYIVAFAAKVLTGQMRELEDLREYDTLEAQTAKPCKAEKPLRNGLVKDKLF
Sequence of murine CerS2 (Q924Z4 whole entry): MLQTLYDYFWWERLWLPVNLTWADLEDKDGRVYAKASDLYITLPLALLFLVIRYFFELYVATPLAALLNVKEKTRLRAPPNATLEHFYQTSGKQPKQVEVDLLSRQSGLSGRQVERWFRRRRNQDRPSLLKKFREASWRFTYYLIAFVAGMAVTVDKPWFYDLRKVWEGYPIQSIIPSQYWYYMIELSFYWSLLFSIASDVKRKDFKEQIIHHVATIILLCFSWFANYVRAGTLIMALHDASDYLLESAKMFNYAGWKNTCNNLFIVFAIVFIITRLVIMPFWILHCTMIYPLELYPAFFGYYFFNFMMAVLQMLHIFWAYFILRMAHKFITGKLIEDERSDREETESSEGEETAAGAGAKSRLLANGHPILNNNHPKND
Procedure for cortical neuron cultures: Mouse cortical neurons were prepared from E16 pups[65] and seeded at 5 × 10^6 cells/well in poly-D-lysine coated six-well plates. Two weeks after seeding, neurons were pre-treated for 2 h with P053, then incubated for a further 1 h with 1 μM deuterated dihydrosphingosine (D7-dhSph). Lipid extraction and quantification of D7-ceramide using liquid chromatography-tandem mass spectrometry (LC-MS/MS)[34] is described below.
Targeted quantification of ceramide, HexCer, and SM species in primary neurons, HEK293 cells, mouse brain, and gastrocnemius muscle lipid extracts was performed by LC-MS/MS on a TSQ Access triple quadrupole mass spectrometer (Thermo Fisher Scientific)[69]. Lipids were separated on a 3 × 150 mm Agilent XDB-C8 column (5 μM pore size) with a 10 min isocratic chromatography run using methanol containing 0.2% formic acid as the mobile phase. Precursor ions were the precise [M + H] species for each lipid. […] Deuterated (D7) ceramides were detected as the corresponding m/z + 7 ions.

The IC50 is the concentration that inhibits the measured activity by half. With `C[C@@](N)(CO)CCc1ccc(OCc2ccc(Cl)c(Cl)c2)cc1` [P053, (S)-2-amino-4-(4-(3,4-dichlorobenzyloxy)phenyl)-2-methylbutan-1-ol], the IC50 on murine CerS1 was determined as 0.46 ± 0.08 µM. In addition, the “de novo C18:0 ceramide synthesis from deuterated dihydrosphingosine” value in the experiment on cortical neuron cultures is “dose-dependent inhibition”. On murine CerS2, the IC50 worked out at 18.5 ± 0.12 µM. Further, in the experiment with C57BL6/J mice, the “fasting insulin and glucose tolerance” value is recorded as “no impact”; the “iAUC for the labelled glucose load” value is on record as “no effect”.
Turning to `CCCCCCCCc1ccc(CCC(N)(CO)CO)cc1` [FTY720, reference compound], the values for the IC50 at murine CerS1 and on murine CerS2 were 5.6 ± 0.05 µM and 10.6 ± 0.13 µM, respectively.
